From patent US12338229B2, “Small molecule stimulators of steroid receptor coactivator-3 and methods of their use as cardioprotective and/or vascular regenerative agents” (BAYLOR COLLEGE OF MEDICINE, priority 2018, dated 2025)
Read-outs that look alike come from different tables or passages of the source.

Tests used:
[1] = tested on: SRC-1, SRC-2 or SRC-3 fused with the DNA binding domain of Gal4; test: Gal4 luciferase reporter (pG5-luc / pBIND-SRC) in HeLa cells; assay type: cell-based; settings: pG5-luc + pBIND-SRC-1, -2 or -3
From the text: The compounds described herein stimulate SRC intrinsic transcriptional activity. HeLa cells transfected with a Gal4 responsive luciferase reporter (pG5-luc) and a construct encoding SRC-1, SRC-2 or SRC-3 fused with the DNA binding domain of Gal4 (pBIND-SRC-1, pBIND-SRC-2 or pBIND-SRC-3) were exposed to treatments with compounds as described herein, including MCB-613, Compound 10-1, and Compound 10-2.

[2] = mouse, in vivo
Procedure: (§2) Each of the three compounds was dissolved in DMSO (20 mg/mL), mixed with 30% hydroxypropyl-β-cyclodextrin at a 1:9 ratio, and administered to the CD-1 mice intraperitoneally (ip) or orally (po) through a gavage. After compound administration, blood samples (3 mice per compound) were collected at nine time points, i.e., at 5 minutes, 0.25 hours, 0.5 hours, 1 hour, 2 hours, 4 hours, 8 hours, 12 hours, and 24 hours, through the tail vein. Plasma was isolated from these blood samples and the compound plasma concentrations were determined by HPLC-MS/MS. Pharmacokinetic parameters were calculated using the program PKSolver, an add-in program for use in analyzing pharmacokinetic and pharmacodynamics data analysis, as described in Zhang et al., Computer Methods and Programs in Biomedicine, 99: 306-314 (2010).

[3] = tested on: mice after myocardial infarction; test: Myocardial infarction model, permanent LAD ligation (echocardiography, histology, immunostaining, PET, EM); assay type: in vivo, ICR (CD1) mice; settings: six weeks post-MI, picrosirius red
Procedure: Model of heart failure in adult mice. To induce myocardial infarction (MI) in 8- to 10-week-old mice, the left anterior descending (LAD) artery was permanently ligated. Briefly, mice were anesthetized with 2% isoflurane and then intubated. The heart was exposed by performing a thoracotomy through the fourth or fifth intercostal space and an 8-0 nylon suture was tied around the LAD artery. 10 uls of Adenoviral SRC-3 (Ad-SRC-3) or adenoviral GFP (Ad-GFP) at a titre of 9×10^9 pfu/ml was injected into the anterior free wall near left ventricular descending coronary artery. To assess cell cycle entry, the analog 5-ethynyl-2′-deoxyuridine (EdU; 0.2 g/L, Santa Cruz, SC-284628A) was added to the drinking water for the 9 day duration of the experiment. Cell proliferation was measured using Click-iT EdU kit (Invitrogen, C10339). The initial dose of MCB-613 was administered intraperitoneally at 20 mg/kg 2 hours after surgery. Subsequent injections of the same dose were given for 6 additional days, and then repeated doses were given for 3 days at week 9 and week 16. Mice were harvested at indicated time points for analyses.
Echocardiography. Cardiac function was determined by echocardiography (VisualSonics, Vevo 2100, 40 Mhz-550S probe). After alignment in the transverse B-mode with the papillary muscles, cardiac function was measured on M-mode images.
(§1) Histological analysis. Whole hearts were fixed with 10% formalin, embedded in paraffin, and sectioned at 7 μm intervals. Each slide had 3 or 10 sections, which started at the apex and ended at the suture ligation site (approximately 30-50 slides). Sections at the papillary level (slides 20-30) were stained with Picrosirius red to identify areas of fibrosis. Infarct size was determined using a length-based approach.
Immunostaining analysis. Immunohistochemistry and immunofluorescent staining experiments were performed on FFPE (formalin-fixed and paraffin-embedded sections). TUNEL staining to detect apoptotic cells was done using the DeadEnd™ Fluorometric TUNEL System manufacturer's protocol (Promega, GS3250).
Model of heart failure in adult mice. To induce MI in eight- to ten-week-old mice, the left anterior descending (LAD) artery was permanently ligated. Briefly, mice were anesthetized with 2% isoflurane and then intubated. The heart was exposed by performing a thoracotomy through the fourth or fifth intercostal space and an 8-0 nylon suture was tied around the LAD. The initial dose of MCB-613 was administered intraperitoneally at 20 mg/kg, two hours after surgery. Subsequent injection at the same time of the day and same dose were given for six additional days, and then repeated doses were given for three days at week nine and week 16. Mice were harvested at the indicated time points for analyses.
Echocardiography. Cardiac function was determined by echocardiography (VisualSonics, Vevo 2100, 40 Mhz-550S probe). After alignment in the transverse B-mode with the papillary muscles, cardiac function was measured on M-mode images. Animal numbers for cardiac function in FIG. 11A are Day 0 control (17); MCB-613 (15), Day 1 control (10); MCB-613 (12), Day 14 […], Day 56 control (12); MCB-613 (15), Day 70 control (8); MCB-613 (10), Day 80 control (8); MCB-613 (11), Day 133 control (3); and MCB-613 (3).
as §1, with “three (3) to ten (10)” for “3 or 10”, “approach. TUNEL staining to detect apoptotic cells was performed using the DeadEnd™ Fluorometric TUNEL System (Promega, GS3250).” for “approach.”
Electron Microscopy. […]

[4] = tested on: mice after myocardial infarction; test: Progressive maximal exercise test, indirect calorimetry (VO2, VCO2); assay type: in vivo; settings: after myocardial infarction
Procedure: RER, VO2 and VCO2 measurements. Respiratory exchange ratio (RER), oxygen consumption (VO^2) and carbon dioxide expiration (VCO2) were measured by indirect calorimetry using a progressive maximal exercise test until mice reached exhaustion.
RER, VO2 and VCO2 measurements. RER, VO2 and VCO2 were measured by indirect calorimetry using a progressive maximal exercise test until mice reached exhaustion.

in vivo = settings: CD-1, mouse
Procedure: as §2

Cl ([2]; ip) | Cl ([2]; po) | AUC(0-inf) (in vivo; ip) [ng·h/mL] | AUC(0-t) (in vivo; ip) [ng·h/mL] | Cmax (in vivo; ip) [ng/mL] | Tmax (in vivo; ip) [min] | half-life (in vivo; ip, Terminal phase t1/2) [min] | half-life (in vivo; ip, t1/2) [min] | AUC(0-inf) (in vivo; po) [ng·h/mL] | AUC(0-t) (in vivo; po) [ng·h/mL] | Cmax (in vivo; po) [ng/mL] | Tmax (in vivo; po) [min] | half-life (in vivo; po, Terminal phase t1/2) [min] | half-life (in vivo; po, t1/2) [min] | SMILES | intrinsic transcriptional activity of SRCs (luciferase) [1] | infarct size vs saline control [3] | cardiovascular fitness (VCO2, VO2, FIG. 9) [4]
0.97 (mg)/(ng/mL)/h | 7.3 (mg)/(ng/mL)/h | 851 | 623 | 357 | 15 | 1090 | 38.4 | 113 | 98.4 | 53.2 | 30 | 612 | 72 | COc1ccccc1/C=C1\CN(CCC(C)C)C/C(=C\c2ccccc2OC)C1=O [Compound 10-1, (3E,5E)-1-isopentyl-3,5-bis(2-methoxybenzylidene)piperidin-4-one] | selectively stimulates the intrinsic transcriptional activity of SRCs | decrease in infarct size | improves cardiovascular fitness after myocardial infarction
1.7 (mg)/(ng/mL)/h | 6.1 (mg)/(ng/mL)/h | 482 | 334 | 463 | 4.8 | 954 | 15 | 135 | 131 | 182 | 15 | 1630 | 46.8 | COc1cccc(/C=C2\CN(CCC(C)C)C/C(=C\c3cccc(OC)c3)C2=O)c1 [Compound 10-2, (3E,5E)-1-isopentyl-3,5-bis(3-methoxybenzylidene)piperidin-4-one] | selectively stimulates the intrinsic transcriptional activity of SRCs |  | 
